We go through 2 molecules from US10940218B2, “Treatment of meningiomas using phenylbenzothiazole, stilbene, biphenylalkyne, or pyridine derivatives” (MAYO FOUNDATION FOR MEDICAL EDUCATION AND RESEARCH, priority 2012, dated 2021).

Entries after “also recorded” stand apart in the source; their conditions may differ.

Assay [1] concerns meningiomas. Description: FDG PET/CT imaging of meningiomas. It counts as in vivo, human. An excerpt: (§1) An Alzheimer's imaging database of two hundred forty-one patients was reviewed. […] MRI reports of all patients were reviewed for possible meningiomas and other tumors. […] Tumors smaller than 7 millimeters are generally considered too small to be evaluated by PET or PET/CT.
(§2) The radiologic interpretations of MRI, CT and FDG PET/CT scans from a population of 834 people who participated in the population-based Mayo Clinic Study of Aging (MCSA) from March 2006 through September 2011 were reviewed for the presence of tumors or other brain lesions. (See, Kantarci K, Lowe V, Przybelski S A, et al., “Magnetic resonance spectroscopy, {beta}-amyloid load, and cognition in a population-based sample of cognitively normal older adults”, Neurology 2011; 77:951-8; and Roberts R O, Geda Y E, Knopman D S, et al., “The Mayo Clinic Study of Aging: design and sampling, participation, baseline measures and sample characteristics”, Neuroepidemiology 2008; 30:58-69.) Participants were randomly selected for recruitment in the MCSA from a population of older adult residents of Olmsted County, Minn., USA. Those with neurological, psychological or systemic illnesses were not excluded. Individuals with dementia, or those unable to be imaged for medical reasons were excluded. All patients were imaged with C11-PiB PET/CT, F18-FDG PET/CT and non-contrast MRI at least once as part of the study. Any additional patient imaging and clinical history was then reviewed.
PET imaging was performed as part of the Mayo Clinic Study of Aging as previously described. (See Kantarci K, Lowe V, Przybelski S A, et al., “Magnetic resonance spectroscopy, {beta}-amyloid load, and cognition in a population-based sample of cognitively normal older adults”, Neurology 2011; 77:951-8.) PiB PET/CT, then FDG PET/CT were performed on the same day. PET/CT imaging was performed on a 690XT or DRX PET/CT tomograph (GE Healthcare). The PET sinograms were reconstructed using a fully-3D OSEM algorithm into a 30 cm field of view; the pixel size was 1.2 mm and the slice thickness was 3.27 mm (DRX) or 1.96 mm (690XT). CT imaging was obtained immediately prior to PET acquisition and used for attenuation correction. Cerebral PiB retention, a marker of amyloid deposition, was measured as previously described. (See Kantarci K, Lowe V, Przybelski S A, et al. “Magnetic resonance spectroscopy, {beta}-amyloid load, and cognition in a population-based sample of cognitively normal older adults”, Neurology 2011; 77:951-8.)

For assay [2], the system named is non-meningioma tumors. Description: FDG PET/CT imaging of non-meningioma tumors. It counts as in vivo, human.
From the text: as §1, §2
PET imaging was performed as part of the Mayo Clinic Study of Aging as previously described. (See Kantarci K, Lowe V, Przybelski S A, et al., “Magnetic resonance spectroscopy, {beta}-amyloid load, and cognition in a population-based sample of cognitively normal older adults”, Neurology 2011; 77:951-8.) PiB PET/CT, then FDG PET/CT were performed on the same day. PET/CT imaging was performed on a 690XT or DRX PET/CT tomograph (GE Healthcare). […] Cerebral PiB retention, a marker of amyloid deposition, was measured as previously described. […]

The test system of assay [3] is meningioma tissue sections. Nature of the assay: Fluorescent tissue staining of meningioma sections. Type of assay: binding, human. Conditions: for location of staining within meningioma cells: tissue sections. An excerpt: (§3) The Department of Pathology, Mayo Clinic Rochester Tumor Tissue Registry, contains tumor samples procured by autopsy and surgery. Meningiomas, brain metastases and other tumors were identified by searching CoPath, a Mayo Clinic electronic pathology database of tumors collected since 1982. Tumor type was confirmed by viewing H&E stained slides under a light microscope.
(§4) Fresh cut 5 μm thick sections were used. Each staining run included normal brain and Alzheimer diseased brain as controls. Fluorescent tissue staining and microscopy was performed similar to methods previously described at Ikonomovic M D, Klunk W E, Abrahamson E E, et al., “Post-mortem correlates of in vivo PiB-PET amyloid imaging in a typical case of Alzheimer's disease”, Brain: A Journal Of Neurology 2008; 131:1630-45. Meningioma and other brain tumor sections were stained with 100 nM CN-PiB, 100 nM of unlabeled PiB or with saline alone as a negative control. The staining protocol was as follows: deparaffinization and rehydration, 0.25% KMnO4 incubation, water wash, 1% K2S2O5/1% Oxalic Acid incubation, water wash, PBS wash, 6-CN-PiB/PiB/saline incubation, PBS wash, NaCl, K2HPO4, and KH2PO4 incubation, water wash, mount coverslip, and storage at 4° C. in the dark until imaged. Slides were imaged within five days of staining. Immunohistochemical staining of meningiomas for beta amyloid protein was performed using NCL-B-Amyloid mouse anti-human antibody per standard clinical protocol.
(§5) Tissue stain images were obtained on a Zeiss 510 confocal microscope with excitation at 405 nm, a 420-480 bandpass filter, and the laser set at 15% power.
(§6) Images were obtained with a C-Apochromat 40×/1.2 W lens.

Assay [4] relates to other intracranial tumors and brain tissue sections. Description: Fluorescent tissue staining of other tumors and brain tissue. Type of assay: binding, human.
From the text: as §3, §4, §5, §6

On to Fluorodeoxyglucose [FDG], for which the “uptake on FDG-PET/CT” value in assay [1] (Example 1, four meningiomas) is listed as “no uptake”; in assay [1] (Example 1, two meningiomas), “mild uptake”; in assay [2] (Example 1, presumed extracranial schwannoma), “mild uptake”. Also, the results for the FDG activity result in assay [1] (FIG. 3 meningioma) and in assay [1] (seven of the 16 meningiomas) were “only trace FDG activity” and “moderate to high FDG activity”, respectively. The “FDG PET activity” value in assay [1] (FIG. 4 meningioma, panels G-I) was “increased FDG PET activity”; in assay [2] (melanoma and small cell lung cancer metastases) it was “increased FDG PET activity; also recorded: positive”. Moreover, the “FDG PET/CT result” value in assay [2] (FIG. 5 pituitary macroadenoma) is “positive”.
For `CNc1ccc(-c2nc3ccc(C#N)cc3s2)cc1` [Formula 6-CN-PiB], the “fluorescent staining of meningioma tissue” value in assay [3] (100 nM stain, 5 μm sections, fluorescent microscopy) is “stained positively; also recorded: intense fluorescence”; in assay [3] (100 nM stain, 5 μm sections, fluorescent microscopy, listed as highly-fluorescent version of the compound of Formula (V)) it was “accumulate”; in assay [3] (multiple WHO grade I transitional type meningiomas), “stained positive”. Further, the “staining brightness versus other intracranial tumors” value in assay [3] (all meningiomas (n=7) vs other intracranial tumors (n=6)) was “qualitatively brighter”. In addition, the “location of staining within meningioma cells” value in assay [3] is on record as “outside the nuclei, within the cytoplasm and/or cell membrane”; in assay [3] (listed as highly-fluorescent version of the compound of Formula (V)), “within the nucleus of the cells of the meningiomas”. The fluorescent staining result in assay [4] (amyloid laden cerebral cortex, Alzheimer's disease, beta-amyloid plaques (positive control)) is “very intense fluorescence”; in assay [4] (lung cancer brain metastasis), “scattered fluorescence; also recorded: staining in the nuclei of the cells”; in assay [4] (normal brain gray matter), “almost no fluorescence”; in assay [4] (schwannoma, FIG. 6 Panel E), “only trace fluorescence”; in assay [4] (some other tumors), “Moderate 6-CN-PiB binding”.
